pKi: −log10 of the molar value.

Drawing on patent publication US11649248B2, “Oxadiazaspiro compounds for the treatment of drug abuse and addiction” (ESTEVE PHARMACEUTICALS, S.A., priority 2015, dated 2023), this text covers Ki for one compound.

The experiment concerns the target human σ1 receptor (Homo sapiens (Human), UniProt Q99720). The experiment can be described thus: Human σ1 receptor radioligand assay. The note with it: transfected HEK-293 membranes, [3H](+)-pentazocine radioligand. The format is binding. Here is the method:
Human σ1 Receptor Radioligand Assay
The assay was carried out with 7 μg of membrane suspension, 5 nM of [^3H](+)-pentazocine in either absence or presence of either buffer or 10 μM Haloperidol for total and non-specific binding, respectively. Binding buffer contained Tris-HCl 50 mM at pH 8. Plates were incubated at 37° C. for 120 minutes. […] Filters were dried and counted at approximately 40% efficiency in a MicroBeta scintillation counter (Perkin-Elmer) using EcoScint liquid scintillation cocktail

Chain of human σ1 receptor (Q99720 whole entry): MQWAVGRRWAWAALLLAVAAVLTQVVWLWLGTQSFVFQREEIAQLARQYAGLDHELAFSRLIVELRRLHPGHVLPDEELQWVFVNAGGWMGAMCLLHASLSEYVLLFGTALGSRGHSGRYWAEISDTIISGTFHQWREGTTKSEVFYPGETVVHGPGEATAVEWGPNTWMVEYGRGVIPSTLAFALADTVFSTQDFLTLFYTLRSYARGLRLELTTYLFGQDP

For the compound `CCN1CC2(CCN(CCC(C)(C)C)CC2)O[C@@H](C)C1=O` [Example 52, (S)-9-(3,3-dimethylbutyl)-4-ethyl-2-methyl-1-oxa-4,9-diazaspiro[5.5]undecan-3-one], the negative-log Ki (pKi) is more than 6.30.
